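Where inhibition never reached the appropriate level, the endpoint shown equals the highest concentration tested. Otherwise, values were interpolated linearly from a five-concentration, 48-hour dose response in 96-well plates. Abbreviation: GI50, concentration required for 50% inhibition of growth. TGI marks complete inhibition of growth.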
What was measured:
Experiment in all cases: DTP human tumour cell line panel, 48 h
MALME-3M melanoma = test system: MALME-3M melanoma
RXF 393 renal = test system: RXF 393 renal
NCI/ADR-RES ovarian = test system: NCI/ADR-RES ovarian
CAKI-1 renal = test system: CAKI-1 renal
SNB-75 CNS = test system: SNB-75 CNS
HS 578T breast = test system: HS 578T breast
CCRF-CEM leukemia = test system: CCRF-CEM leukemia
HL-60(TB) leukemia = test system: HL-60(TB) leukemia
UACC-257 melanoma = test system: UACC-257 melanoma
SF-295 CNS = test system: SF-295 CNS

SMILES: O=c1c2cccc(F)c2sc2c(N3CCNCC3)nc3ccccc3c12
- GI50 (MALME-3M melanoma): 1.67 µM
- TGI (MALME-3M melanoma): 3.07 µM
- GI50 (RXF 393 renal): 1.31 µM
- TGI (RXF 393 renal): 2.62 µM
- GI50 (NCI/ADR-RES ovarian): 1.6 µM
- TGI (NCI/ADR-RES ovarian): 3.21 µM
- GI50 (CAKI-1 renal): 1.35 µM
- TGI (CAKI-1 renal): 2.73 µM
- GI50 (SNB-75 CNS): 1.16 µM
- TGI (SNB-75 CNS): 2.41 µM
- GI50 (HS 578T breast): 1.62 µM
- TGI (HS 578T breast): 3.66 µM
- GI50 (CCRF-CEM leukemia): 1.33 µM
- TGI (CCRF-CEM leukemia): 3.18 µM
- GI50 (HL-60(TB) leukemia): 1.76 µM
- TGI (HL-60(TB) leukemia): 3.44 µM
- GI50 (UACC-257 melanoma): 1.93 µM
- TGI (UACC-257 melanoma): 3.94 µM
- GI50 (SF-295 CNS): 1.76 µM
- TGI (SF-295 CNS): 3.33 µM

SMILES: Cc1cccc2nc3cccc(C(=O)NCCNCCNCCNC(=O)c4cccc5nc6cccc(C)c6nc45)c3nc12
- GI50 (MALME-3M melanoma): < 0.0302 µM
- TGI (MALME-3M melanoma): 2.21 µM
- GI50 (RXF 393 renal): < 0.0149 µM
- TGI (RXF 393 renal): 0.228 µM
- GI50 (NCI/ADR-RES ovarian): 0.296 µM
- TGI (NCI/ADR-RES ovarian): > 100 µM
- GI50 (CAKI-1 renal): 0.0461 µM
- TGI (CAKI-1 renal): 23.2 µM
- GI50 (SNB-75 CNS): 0.181 µM
- TGI (SNB-75 CNS): 1.44 µM
- GI50 (HS 578T breast): 0.0474 µM
- TGI (HS 578T breast): 2.24 µM
- GI50 (CCRF-CEM leukemia): 0.0859 µM
- TGI (CCRF-CEM leukemia): 2.86 µM
- GI50 (HL-60(TB) leukemia): < 0.0139 µM
- TGI (HL-60(TB) leukemia): 1.12 µM
- GI50 (UACC-257 melanoma): 0.0557 µM
- TGI (UACC-257 melanoma): 1.76 µM
- GI50 (SF-295 CNS): < 0.01 µM
- TGI (SF-295 CNS): 1.11 µM

SMILES: CCOC(=O)c1ccc2c(c1)nc(/C=C/c1ccc(Cl)cc1)n2-c1cc(C(C)(C)C)[nH]n1
- GI50 (MALME-3M melanoma): 2.8 µM
- TGI (MALME-3M melanoma): 18.5 µM
- GI50 (RXF 393 renal): 2.21 µM
- TGI (RXF 393 renal): 6.48 µM
- GI50 (NCI/ADR-RES ovarian): 10.1 µM
- TGI (NCI/ADR-RES ovarian): > 100 µM
- GI50 (CAKI-1 renal): 5.04 µM
- TGI (CAKI-1 renal): 61.2 µM
- GI50 (SNB-75 CNS): 1.9 µM
- TGI (SNB-75 CNS): 5.51 µM
- GI50 (HS 578T breast): 3.6 µM
- TGI (HS 578T breast): 61.8 µM
- GI50 (CCRF-CEM leukemia): 7.54 µM
- TGI (CCRF-CEM leukemia): > 100 µM
- GI50 (HL-60(TB) leukemia): 39.9 µM
- TGI (HL-60(TB) leukemia): > 100 µM
- GI50 (UACC-257 melanoma): 6.84 µM
- TGI (UACC-257 melanoma): > 100 µM
- GI50 (SF-295 CNS): 2.63 µM
- TGI (SF-295 CNS): 8.82 µM

SMILES: O=C(c1ccco1)c1c(C(F)(F)F)nc2ccc(C(F)(F)F)cc2[n+]1[O-]
- GI50 (MALME-3M melanoma): 20.8 µM
- TGI (MALME-3M melanoma): 47.7 µM
- GI50 (RXF 393 renal): 26.5 µM
- TGI (RXF 393 renal): 62.2 µM
- GI50 (NCI/ADR-RES ovarian): 44.2 µM
- TGI (NCI/ADR-RES ovarian): > 100 µM
- GI50 (CAKI-1 renal): 24.5 µM
- TGI (CAKI-1 renal): > 83.2 µM
- GI50 (SNB-75 CNS): 16.9 µM
- TGI (SNB-75 CNS): 36.4 µM
- GI50 (HS 578T breast): 21.2 µM
- TGI (HS 578T breast): 54.5 µM
- TGI (CCRF-CEM leukemia): > 49.4 µM
- GI50 (HL-60(TB) leukemia): > 100 µM
- TGI (HL-60(TB) leukemia): > 100 µM
- GI50 (UACC-257 melanoma): > 52.6 µM
- TGI (UACC-257 melanoma): > 85.9 µM
- GI50 (SF-295 CNS): 33.2 µM
- TGI (SF-295 CNS): > 100 µM

SMILES: COC1=C(Br)C(O)C2(C=C1Br)CC(C(=O)NCCCCNC(=O)C1=NOC3(C=C(Br)C(OC)=C(Br)C3O)C1)=NO2 (centres undefined)
- TGI (MALME-3M melanoma): 45.5 µM
- TGI (RXF 393 renal): 69.6 µM
- TGI (NCI/ADR-RES ovarian): > 100 µM
- TGI (CAKI-1 renal): > 100 µM
- TGI (SNB-75 CNS): 61.2 µM
- TGI (HS 578T breast): 46.9 µM
- TGI (CCRF-CEM leukemia): 40.3 µM
- TGI (HL-60(TB) leukemia): 47.4 µM
- TGI (UACC-257 melanoma): 52.8 µM
- TGI (SF-295 CNS): 90.5 µM

SMILES: Clc1cc2c(nn1)Nc1ccccc1S2
- GI50 (MALME-3M melanoma): > 100 µM
- TGI (MALME-3M melanoma): > 100 µM
- GI50 (RXF 393 renal): > 100 µM
- TGI (RXF 393 renal): > 100 µM
- GI50 (NCI/ADR-RES ovarian): > 100 µM
- TGI (NCI/ADR-RES ovarian): > 100 µM
- GI50 (CAKI-1 renal): > 100 µM
- TGI (CAKI-1 renal): > 100 µM
- GI50 (SNB-75 CNS): > 100 µM
- TGI (SNB-75 CNS): > 100 µM
- GI50 (HS 578T breast): 38.4 µM
- TGI (HS 578T breast): > 100 µM
- GI50 (CCRF-CEM leukemia): > 100 µM
- TGI (CCRF-CEM leukemia): > 100 µM
- GI50 (HL-60(TB) leukemia): > 100 µM
- TGI (HL-60(TB) leukemia): > 100 µM
- GI50 (UACC-257 melanoma): > 100 µM
- TGI (UACC-257 melanoma): > 100 µM
- GI50 (SF-295 CNS): > 100 µM
- TGI (SF-295 CNS): > 100 µM

SMILES: CC(C)=CCC1=C(OCC(=O)O)C(=O)c2ccccc2C1=O
- TGI (MALME-3M melanoma): 35 µM
- TGI (RXF 393 renal): 81.1 µM
- TGI (NCI/ADR-RES ovarian): > 100 µM
- TGI (CAKI-1 renal): > 100 µM
- TGI (SNB-75 CNS): 64.7 µM
- TGI (HS 578T breast): 62.6 µM
- TGI (CCRF-CEM leukemia): 54.7 µM
- TGI (HL-60(TB) leukemia): 36.1 µM
- TGI (UACC-257 melanoma): 76 µM
- TGI (SF-295 CNS): 41.4 µM

SMILES: NC(=S)N/N=C/c1ccc(N)cn1
- TGI (MALME-3M melanoma): > 10 µM
- TGI (RXF 393 renal): > 10 µM
- TGI (NCI/ADR-RES ovarian): > 10 µM
- TGI (CAKI-1 renal): > 10 µM
- TGI (SNB-75 CNS): > 10 µM
- TGI (HS 578T breast): > 10 µM
- TGI (CCRF-CEM leukemia): > 10 µM
- TGI (HL-60(TB) leukemia): 5.44 µM
- TGI (UACC-257 melanoma): > 10 µM
- TGI (SF-295 CNS): > 10 µM
